Our source for the EC50 values is PMC6651094, “A Ligand-Based Virtual Screening Method Using Direct Quantification of Generalization Ability” (Molecules, 2019).

Molecules are shown by their SMILES.

For the assay, the target named is T1, HIV-1 integrase multimerization (Human immunodeficiency virus type 1 group M subtype B, UniProt P12497).
T1 construct: His-tagged and FLAG-tagged integrase (donated by professor Mamuka Kvaratskhelia); gift of Prof; Mamuka Kvaratskhelia (University of Colorado Denver Anschutz Medical Campus)
Nature of the assay: HTRF assay validating activators of HIV-1 integrase multimerization (in vitro binding assay). The settings on record: His-tagged and FLAG-tagged integrase 20 nM each; time-resolved FRET; 8-point 1:3 dilution from 53.7 μM, triplicate; active when EC50 < 5 µM. The class given is biochemical. The method, then: An assay was carried out as previously described to experimentally validate the compounds [45] identified by LBS as activators of HIV-1 integrase multimerization. Briefly, His-tagged and FLAG-tagged integrase (donated by professor Mamuka Kvaratskhelia at university of Colorado Denver Anschutz Medical Campus) were separately prepared with final concentration of 20 nM. An antibody mixture was prepared with 1.25 μg/mL of anti-6xHis-XL665 antibody (Cisbio) and 58 ng/mL of anti-FLAG-EuCryptate antibody (Cisbio), respectively, in Tris-HCl buffer. His-tagged and FLAG-tagged Integrase were mixed in 25 mM Tris-HCl (pH 7.4) buffer containing 150 mM NaCl, 2 mM MgCl2, 0.1% Nonidet P40, and 1 mg/mL BSA. 35 μL of integrase mixture was added to each well. Next, 270 nL of compounds (each in triplicate using 8-point 1:3 dilution series starting at a maximum nominal test concentration of 53.7 μM) were distributed to appropriate wells. Dimethyl sulfoxide was used as low-control, and BIB-II (donated by professor Mamuka Kvaratskhelia at university of Colorado Denver Anschutz Medical Campus) was used as high-control reference compound. After 3 h of incubation, 15 μL of antibody mixture was added to the plates. After incubation at room temperature for 2.5 h, the time-resolved fluorescence energy transfer signal was measured by the microplate reader (SpectraMax M5, Molecular Devices, LLC., San Jose, CA, USA) by exciting the plates (384 well, Corning) at 340 nm and monitoring well fluorescence at 618 nm and 671 nm with the microplate reader. All the test compounds were bought from ChemDiv (San Diego, CA, USA).
Background: In TR-FRET formats the signal depends on donor and acceptor labels being close together.
A word on the EC50: it is the concentration at which the effect is half-maximal. A high value points to lower potency in that assay. Molecule `O=C(NNC1OC(CO)C(O)C(O)C1O)c1ccc(O)cc1` (stereo not shown) [compound 4137880] yielded an EC50 of 1260 nM.

With `COc1cccc(/C=N/Nc2nc3c(=O)[nH]c(N)nc3n2C2OC(CO)C(O)C2O)c1O` (stereo not shown) [Pubchem CID 135427812], the EC50 was 710 nM.

In turn, `O=C(NN=Cc1ccccc1F)c1cc(O)c(O)c(O)c1` [compound 3656702] returned an EC50 of 4880 nM.

Regarding `COc1cccc(C=NNc2nc3c(=O)[nH]c(N)nc3n2C2OC(CO)C(O)C2O)c1O` (stereo not shown) [compound 135427812], the EC50 amounted to 710 nM.

`O=c1cc(-c2ccc(O)c(O)c2)oc2cc(OC3OC(CO)C(O)C(O)C3O)cc(O)c12` (stereo not shown) [compound 5291488] returned an EC50 of 3620 nM.

The molecule `O=c1c2cc(O)c(O)cc2oc2cc(O)c(OC3OC(CO)C(O)C(O)C3O)c(O)c12` (stereo not shown) [compound 46397461] showed an EC50 of 1260 nM.

The molecule `O=c1c(OC2OC(CO)C(O)C(O)C2O)c(-c2ccc(O)c(O)c2)oc2cc(O)cc(O)c12` (stereo not shown) [compound 5378597] displayed an EC50 of 1360 nM.
